Test results: patent US20250263434A1, “OLIGOPEPTIDE HAVING BLOOD PRESSURE REDUCING EFFECT, AND PREPARATION METHOD THEREFOR AND APPLICATION THEREOF” (South China Agricultural University, priority 2020, published 2025)

System: ACE
Experiment: Determination of ACE inhibitory activity (HHL substrate, hippuric acid measured by HPLC)
Assay type: biochemical
Details: for IC50: ACE inhibition, IC50 found from the inhibition rate vs concentration curve
Protocol: (2) Determination Method of ACE Inhibitory Activity
10 μL of ACE solution (0.25 U/mL, ACE enzyme was dissolved into pH 7 potassium phosphate buffer) was respectively added into a sample tube (B) and a blank tube (A), 10 μL of ACEI was added into the sample tube, 10 μL of buffer was added into the blank tube, samples were incubated for 5 min at 37° C., then 30 μL of HHL solution ([…], HHL was dissolved into pH 8.3 0.1 mol·L^−1 borate buffer, containing 0.3 mol·L^−1 NaCl) was added, the above materials reacted for 1 h at 37° C., and then 80 μL of 1.0 mol/L HCl was added to terminate the reaction, so as to obtain a reaction solution, seen in Table 2.
Mobile phase and chromatographic conditions: acetonitrile: ultrapure water=25:75 (including 0.1% (V/V) TFA), flow rate: 1 mL/min; detection wavelength: 228 nm; column temperature: 30° C.; injection volume: 20 μL.
Principle: HHL was rapidly decomposed under the catalysis of ACE to produce hippuric acid (Hip) and dipeptide (His-Leu, HL). Hippuric acid has the maximum absorption at 228 nm. When ACEI samples were added, the activity of the ACE enzyme was inhibited and the production amount of hippuric acid was reduced. Therefore, the inhibition rate of ACEI on ACE activity can be evaluated by measuring the production amount of hippuric acid by HPLC.
In the formula, R: an inhibition rate (%) of ACEI sample on ACE; • A: a peak area of hippuric acid in control group • B: a peak area of hippuric acid in ACEI addition group • A0: a peak area of hippuric acid in blank group
Where, IC50 is defined as a concentration of an inhibitor required when a half of ACE enzyme activity is inhibited under certain conditions. There was no a linear relationship between the inhibition rate and the concentration of the formulation, and therefore a curve of a relationship between the inhibition rate and the concentration of the formulation was firstly plotted, and then IC50 was found out from the curve. […]

Substance | IC50 | IC50 (listed as oligopeptide) | inhibition rate on ACE (concentration of the sample 1 mg/mL)
LIIPEH [Artificially synthesized monomer H6, Leu-Ile-Ile-Pro-Glu-His, Synthesized LIIPEH by Shanghai jiepeptide Biotechnology Co., Ltd] | 56.67 ± 12.02 µg/mL |  | 
LIIPEH [RP-HCLP separated monomer H6, Leu-Ile-Ile-Pro-Glu-His, Oligopeptide LIIPEH separated and purified from rice wine lees] |  | 280.00 ± 5.77 µg/mL | 91.72%
